Source: the NIST ThermoML archive (doi:10.1016/j.tca.2014.11.028)

Tests used:
[1] = xn = mol fraction of the nth substance listed; conditions: 101 kPa, Liquid, Vibrating tube method
[2] = 101 kPa, Liquid, Vibrating tube method

C[N+](C)(C)CCO.[Cl-] [choline chloride] + OCCO
[1], x1 = 0.3333
Conditions | mass density [kg/m3]
283.15 K | 1122.9
293.15 K | 1117.1
303.15 K | 1111.4
313.15 K | 1105.7
323.15 K | 1100.1
333.15 K | 1094.7
343.15 K | 1088.7
353.15 K | 1081.9
363.15 K | 1074.4

O=C(O)CC(=O)O [propanedioic acid] + C[N+](C)(C)CCO.[Cl-]
[1], x2 = 0.3333
Conditions | mass density [kg/m3]
283.15 K | 1191.5
293.15 K | 1185.1
303.15 K | 1178.6
313.15 K | 1172.3
323.15 K | 1166
333.15 K | 1160.3
343.15 K | 1154
353.15 K | 1146.6
363.15 K | 1138.8

O [water]
[2]
Conditions | mass density [kg/m3]
283.15 K | 999.7
323.15 K | 988
333.15 K | 983.2
343.15 K | 977.8
353.15 K | 971.7
363.15 K | 965
